Legend:
[1] = system: methicillin-resistant S. aureus; conditions: S. aureus (MR); s.c. in the hour subsequent to inoculation; cited from earlier work
[2] = system: methicillin resistant Staphylococcus aureus; conditions: methicillin-resistant S. aureus (MR); s.c. in the hour subsequent to inoculation; previous studies; cited from earlier work
[3] = system: methicillin resistant Staphylococcus aureus; assay: Survival of mice inoculated with 10xLD50 S. aureus, EK pretreatment with or without Ampicillin; assay type: in vivo
Protocol: Animals were inoculated intraperitoneally with 10×LD50 of a Staphylococcus aureus suspended in brain-heart infusion broth containing 5 percent mucin. […] If significant prevention of mortality (>50 percent survival) was observed, the minimum effective dose (MED) was determined.
Two control experiments were initially conducted. […] No antibiotic was administered to this group. The number of survivors at 72 hours was determined. […] The number of survivors at 72 hours was recorded.
Survival statistics were determined over the periods of 12, 24, 36, 48, and 72 hours. […] Survival statistics were determined over the periods 12, 23,36, 48, and 72 hours. FIG. 1 illustrates the experimental protocol.

[4] = system: microbial growth; assay: Bacterial culture experiments with EK; assay type: cell-based; conditions: concentrations exceeding 1000 times the administered dose to animals
[5] = 12 HOURS after inoculation, EK 10 mcg/kg
[6] = 12 HOURS after inoculation, EK 100 mcg/kg
[7] = 12 HOURS after inoculation, EK 1000 mcg/kg
[8] = 24 HOURS after inoculation, EK 10 mcg/kg
[9] = 24 HOURS after inoculation, EK 100 mcg/kg
[10] = 24 HOURS after inoculation, EK 1000 mcg/kg
[11] = 36 HOURS after inoculation, EK 10 mcg/kg
[12] = 36 HOURS after inoculation, EK 100 mcg/kg
[13] = 36 HOURS after inoculation, EK 1000 mcg/kg
[14] = 48 HOURS after inoculation, EK 10 mcg/kg
[15] = 48 HOURS after inoculation, EK 100 mcg/kg
[16] = 48 HOURS after inoculation, EK 1000 mcg/kg
[17] = 72 HOURS after inoculation, EK 10 mcg/kg
[18] = 72 HOURS after inoculation, EK 100 mcg/kg
[19] = 72 HOURS after inoculation, EK 1000 mcg/kg

For `CC1(C)S[C@@H]2[C@H](NC(=O)[C@H](N)c3ccccc3)C(=O)N2[C@H]1C(=O)O` [Amp, Ampicillin], the “MED (minimum effective dose)” value [1] is listed as “greater than 100 mg/kg” and the “MED (minimum effective dose)” value [2] is listed as “greater than 100 mg/kg”.

In the case of Glu-Lys [EK], the Deaths [3, 5] is reported as 0, the Survival [3, 5] is reported as 100.00% and the Survivors [3, 5] is reported as 18. The Deaths [3, 6] was 2, the Survival [3, 6] was 88.89% and the Survivors [3, 6] was 16. It also gave a Deaths [3, 7] of 1, a Survival [3, 7] of 94.44% and a Survivors [3, 7] of 17. The Deaths [3, 8] was 5, the Survival [3, 8] was 72.22% and the Survivors [3, 8] was 13. For the same compound, the Deaths [3, 9] was 5, the Survival [3, 9] was 72.22% and the Survivors [3, 9] was 13. For the same compound, the Deaths [3, 10] was 1, the Survival [3, 10] was 94.44% and the Survivors [3, 10] was 17. For the same compound, the Deaths [3, 11] was 9, the Survival [3, 11] was 50.00% and the Survivors [3, 11] was 9. For the same compound, the Deaths [3, 12] was 9, the Survival [3, 12] was 50.00% and the Survivors [3, 12] was 9. For the same compound, the Deaths [3, 13] was 4, the Survival [3, 13] was 77.78% and the Survivors [3, 13] was 14. For the same compound, the Deaths [3, 14] was 13, the Survivors [3, 14] was 5 and the Deaths [3, 15] was 13. The Survivors [3, 15] was 5, the Deaths [3, 16] was 10 and the Survival [3, 16] was 44.44%. It also gave a Survivors [3, 16] of 8, a Deaths [3, 17] of 13 and a Survivors [3, 17] of 5. The Deaths [3, 18] was 13, the Survivors [3, 18] was 5 and the Deaths [3, 19] was 11. The Survival [3, 19] was 38.89%, the Survivors [3, 19] was 7 and the “survival after normally lethal i.p. dose of S. aureus” value ([3]; EK pretreatment) was “dramatic improvement in survival”. For the same compound, the “Survival” value ([3]; at 36 hours, across EK dose groups) was ≤ 78%, the “Survival” value ([3]; by 72 hours, across EK dose groups) was “at least 27%” and the “activity on microbial growth” value [4] was “no inhibitory nor suppressive activity”.

From US6346514B1, “Pharmaceutical lysine-containing polypeptide compositions and methods of use thereof” (priority 1991, dated 2002)
